Test results reported in patent US5409933A, “Quinoline derivatives and processes for preparing the same” (priority 1993, dated 1995).
Where a name gives a salt, the structure may show the parent alone. Read-outs that look alike come from different tables or passages of the source.

Legend:
Experiment in all cases: In Vitro Anti-Bacterial Activity Test (MIC, agar dilution)
Type in all cases: cell-based
[1] = tested on: Pseudomonas aeruginosa 1771; conditions: Pseudomonas aeruginosa 1771; Muller-Hinton agar, 37° C., 18 hours; read-out: MIC
Summary of the method: (§1)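 Bacterial suspensions of 10^7 C.F.U./ml are inoculated onto Muller-Hinton agar containing graded compound levels. After 18 hours at 37° C., the lowest level showing no growth is recorded as MIC.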

[2] = tested on: Escherichia coli 078; conditions: Escherichia coli, 078, 18 h
Summary of the method: as §1

[3] = tested on: Streptococcus pyogenes 77A
Summary of the method: as §1

[4] = tested on: Klebsiella aerogenes 1522E; conditions: Klebsiella aerogenes, 1522E, 18 h
Summary of the method: as §1

[5] = tested on: Escherichia coli TEM; conditions: Escherichia coli, 18 h, Muller-Hinton agar, 37° C.
Summary of the method: (§2)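 Ciprofloxacin was the control antibacterial in this Muller-Hinton agar dilution test. Cultures of 10^7 C.F.U./ml grew for 18 hours at 37° C., and inhibition of growth set the MIC.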

[6] = tested on: Staphylococcus aureus SG511; conditions: Staphylococcus aureus SG511; Muller-Hinton agar, 37° C., 18 hours; read-out: MIC
Summary of the method: as §1

[7] = tested on: Streptococcus faecium MD8b; conditions: Enterococcus faecium, Muller-Hinton agar, 37° C., 18 hours, read-out: MIC
Summary of the method: as §1

[8] = tested on: Enterobacter cloacae 1321E; conditions: Enterobacter cloacae 1321E; Muller-Hinton agar, 37° C., 18 hours; read-out: MIC
Summary of the method: as §1

[9] = tested on: Escherichia coli 1507E; conditions: Muller-Hinton agar, 37° C.
Summary of the method: as §1

[10] = tested on: Escherichia coli DC0; conditions: Muller-Hinton agar, 37° C., 18 hours, read-out: MIC
Summary of the method: as §1

[11] = tested on: Salmonella typhimurium; conditions: Salmonella enterica; Salmonella typhimurium; Muller-Hinton agar, 37° C., 18 hours; read-out: MIC
Summary of the method: as §1

[12] = tested on: Enterobacter cloacae P99; conditions: Enterobacter cloacae, P99, 18 h
Summary of the method: as §2

[13] = tested on: Streptococcus pyogenes 308A; conditions: Muller-Hinton agar, 37° C., 18 hours, read-out: MIC
Summary of the method: as §1

[14] = tested on: Escherichia coli DC2; conditions: Escherichia coli, DC2, 18 h
Summary of the method: as §1

[15] = tested on: Staphylococcus aureus 503; conditions: Staphylococcus aureus 503; Muller-Hinton agar, 37° C., 18 hours; read-out: MIC
Summary of the method: as §1

[16] = tested on: Pseudomonas aeruginosa 1771M; conditions: Pseudomonas aeruginosa, 1771M, 18 h, Muller-Hinton agar, 37° C.
Summary of the method: as §1

[17] = tested on: Staphylococcus aureus 285; conditions: Staphylococcus aureus, 285, 18 h
Summary of the method: as §1

[18] = tested on: Pseudomonas aeruginosa 9027; conditions: Muller-Hinton agar, 37° C., 18 hours, read-out: MIC
Summary of the method: as §1

[19] = tested on: Klebsiella oxytoca 1082E; conditions: Klebsiella oxytoca 1082E; Muller-Hinton agar, 37° C., 18 hours; read-out: MIC
Summary of the method: as §1

[20] = tested on: Pseudomonas aeruginosa 1592E; conditions: Muller-Hinton agar, 37° C., 18 hours, read-out: MIC
Summary of the method: as §1

[21] = Streptococcus pyogenes 77A, Muller-Hinton agar, 37° C., 18 hours, read-out: MIC
[22] = Staphylococcus aureus 285, Muller-Hinton agar, 37° C., 18 hours, read-out: MIC
[23] = Klebsiella aerogenes 1522E, Muller-Hinton agar, 37° C., 18 hours, read-out: MIC

Row | SMILES | MIC [1] [µg/mL] | MIC [2] [µg/mL] | MIC [3, 21] [µg/mL] | MIC [5] [µg/mL] | MIC [6] [µg/mL] | MIC [7] [µg/mL] | MIC [8] [µg/mL] | MIC ([9]; Escherichia coli, 1507E, 18 h) [µg/mL] | MIC [10] [µg/mL] | MIC [11] [µg/mL] | MIC [12] [µg/mL] | MIC [13] [µg/mL] | MIC [14] [µg/mL] | MIC [15] [µg/mL] | MIC [16] [µg/mL] | MIC [17, 22] [µg/mL] | MIC [18] [µg/mL] | MIC [19] [µg/mL] | MIC [20] [µg/mL] | MIC [4, 23] [µg/mL] | other results
1 | N#CCC(=O)c1cn(C2CC2)c2c(Cl)c(N3CC4=C(CNC4)C3)c(F)cc2c1=O [Example 44, 1-cyclopropyl-6-fluoro-8-chloro-7-(3,7-diazabicyclo[3.3.0]oct-1,5-en-3-yl)-3-(2-cyanoacetyl)-1,4-dihydro-4-oxoquinoline hydrochloride] | 12.5 | 0.195 | 25 | 0.391 | 6.25 | 25 | 0.098 | 0.781 | 3.12 | 0.195 | 0.195 | 25 | 1.56 | 6.25 | 3.12 | 6.25 | 12.5 | 0.195 | 6.25 | – | MIC [4]: 0.391 µg/mL
2 | N#CC(C#N)C(=O)c1cn(C2CC2)c2c(Cl)c(N3CCC(N)C3)c(F)cc2c1=O (stereo not drawn) [Example 45, 1-cyclopropyl-6-fluoro-8-chloro-7-(3-aminopyrrolidin-1-yl)-3-(2,2-dicyanoacetyl)-1,4-dihydro-4-oxoquinoline hydrochloride] | 3.12 | 0.049 | 25 | 0.195 | 0.781 | 6.25 | 0.098 | 0.195 | 1.56 | 0.098 | 0.195 | 25 | 0.781 | 1.56 | 0.781 | 1.56 | 6.25 | 0.049 | 3.12 | 0.391 | –
3 | CNCC1=CCN(c2c(F)cc3c(=O)c(C(=O)CS(C)(=O)=O)cn(C4CC4)c3c2Cl)C1 [Example 46, 1-cyclopropyl-6-fluoro-8-chloro-7-(3-methylaminomethyl-2,5-dihydropyrrol-1-yl)-3-(2-methanesulfonylacetyl)-1,4-dihydro-4-oxoquinoline hydrochloride] | 1.56 | 0.025 | 0.391 | 0.049 | 0.098 | 0.195 | 0.049 | 0.098 | 0.391 | 0.195 | 0.098 | 1.56 | 0.098 | 0.049 | 0.195 | 0.049 | 1.56 | 0.013 | 0.781 | 0.013 | –
4 | CS(=O)(=O)CC(=O)c1cn(C2CC2)c2c(Cl)c(N3CC4=C(CNC4)C3)c(F)cc2c1=O [Example 47, 1-cyclopropyl-6-fluoro-8-chloro-7-(3,7-diazabicyclo[3.3.0]oct-1,5-en-3-yl)-3-(2-methanesulfonylacetyl)-1,4-dihydro-4-oxoquinoline hydrochloride] | 0.781 | 0.195 | – | 0.195 | 0.391 | 0.781 | 0.049 | 0.391 | 0.781 | 0.098 | 0.049 | 1.56 | 0.391 | 0.391 | 0.195 | – | 1.56 | 0.098 | 0.781 | 0.049 | MIC ([3]; Streptococcus pyogenes, 77A, 18 h): 0.781 µg/mL; MIC [17]: 0.195 µg/mL
5 | CC(=O)C(C(C)=O)C(=O)c1cn(C2CC2)c2c(Cl)c(N3CCC(N)C3)c(F)cc2c1=O (stereo not drawn) [Example 48, 1-cyclopropyl-6-fluoro-8-chloro-7-(3-aminopyrrolidin-1-yl)-3-(2,2-diacetoacetyl)-1,4-dihydro-4-oxoquinoline hydrochloride] | 3.12 | 0.049 | 0.391 | 0.049 | 0.195 | 0.195 | 0.098 | 0.195 | 0.391 | 0.391 | 0.098 | 0.781 | 0.098 | 0.195 | 0.781 | 0.195 | 3.12 | 0.195 | 1.56 | 0.195 | –
6 | COc1c(N2CCC(N)C2)c(F)cc2c(=O)c(C(=O)C[N+](=O)[O-])cn(C3CC3)c12 (stereo not drawn) [Example 49, 1-cyclopropyl-6-fluoro-8-methoxy-7-(3-aminopyrrolidin-1-yl)-3-(2-nitroacetyl)-1,4-dihydro-4-oxoquinoline hydrochloride] | 3.12 | 0.049 | 0.098 | 0.049 | 0.098 | 0.195 | 0.025 | 0.098 | 0.391 | 0.049 | 0.049 | 0.391 | 0.098 | 0.098 | 0.781 | 0.098 | 3.12 | 0.013 | 1.56 | 0.098 | –
7 | Cc1c(N2CCC(N)C2)c(F)cc2c(=O)c(C(=O)C[N+](=O)[O-])cn(C3CC3)c12 (stereo not drawn) [Example 50, 1-cyclopropyl-6-fluoro-8-methyl-7-(3-aminopyrrolidin-1-yl)-3-(2-nitroacetyl)-1,4-dihydro-4-oxoquinoline hydrochloride] | 1.56 | 0.025 | 0.391 | 0.049 | 0.098 | 0.195 | 0.013 | 0.098 | 0.195 | 0.013 | 0.013 | 0.781 | 0.049 | 0.098 | 0.391 | 0.098 | 1.56 | 0.013 | 0.781 | 0.195 | –
8 | Cc1c(F)c(N2CCNC(C)C2)cc2c1c(=O)c(C(=O)C[N+](=O)[O-])cn2C1CC1 (stereo not drawn) [Example 51, 1-cyclopropyl-5-methyl-6-fluoro-7-(3-methylpiperazin-1-yl)-3-(2-nitroacetyl)-1,4-dihydro-4-oxoquinoline hydrochloride] | 0.781 | 0.025 | 0.391 | 0.049 | 0.195 | 0.391 | 0.025 | 0.049 | 0.781 | 0.025 | 0.025 | 0.781 | 0.195 | 0.098 | 0.195 | 0.098 | 0.781 | 0.013 | 0.391 | 0.195 | –
9 | CCOC(=O)C(C(N)=O)C(=O)c1cn(C2CC2)c2c(Cl)c(N3CCC(N)C3)c(F)cc2c1=O (stereo not drawn) [Example 52, 1-cyclopropyl-6-fluoro-8-chloro-7-(3-aminopyrrolidin-1-yl)-3-(2-amido-2-ethoxycarbonylacetyl)-1,4-dihydro-4-oxoquinoline hydrochloride] | 0.391 | 0.007 | 0.391 | < 0.002 | 0.025 | 0.391 | < 0.002 | – | 0.049 | 0.013 | 0.004 | 0.195 | 0.025 | 0.025 | 0.098 | 0.025 | 0.781 | < 0.002 | 0.391 | 0.013 | MIC ([9]; 18 hours, read-out: MIC): 0.004 µg/mL
